Measured values from patent US6361595B1, “Process for the preparation of pigment compositions” (Ciba Specialty Chemicals Corporation, priority 1999, dated 2002).

Columns and labels:
Type in all cases: cell-based, bacteria
[1] = tested on: mixed culture of Gram-positive cocci, Gram-negative cocci, Gram-positive rods and Gram-negative rods; test: Microbial contamination of dried Pigment Yellow 74 powder (Example 1 procedure) after mixing filter cake with bacterial culture
Method: (§1) Susceptibility to microbial contamination is assessed according to the following procedure:
(§2) Microbial contamination is assessed using individual bacteria of the morphological types, Gram-positive cocci, Gram-negative cocci, Gram-positive rods and Gram-negative rods which are maintained on Nutrient Agar slopes. When required, each is cultured in Nutrient broth at 30° C. until an organism count of >10^8 colony-forming units (cfu) per milliliter (ml) is reached. The individual cultures are then mixed in equal proportions to provide a mixed culture which is then used immediately.
(§3) 23.3 parts of acetic acid (80%) are added to a solution of 55 parts of acetoacet-o-anisidide dissolved in a solution of 25.5 parts of sodium hydroxide (47%) in 450 parts of water at a temperature of 0° C. The resultant slurry is reacted with 42.5 parts of p-nitro-o-anisidine previously diazotised with 45.4 parts of sodium nitrite (37%) and 56 parts of hydrochloric acid (36%) in the usual manner with simultaneous addition of sodium hydroxide solution (10%) to maintain pH 5.5-6.0. To the coupled slurry are then added 3 parts of dibutyl sebacate and 1 part of dimethylbenzyl-C12-14alkylammonium chloride (100% active) and the mixture is heated to a temperature of 100° C. and maintained at this temperature for one hour. The product is then filtered and washed with water under vacuum to remove soluble salts. The filter cake(still under vacuum suction) is mixed with a bacterial culture (10 ml of culture diluted to 100 ml with water)and vacuum suction is maintained until no further liquid emanates from the filter cake. The filter cake, without further washing, is then dried and converted to a powder by grinding. The powder is then passed through a 150 micron sieve.
The procedure described in Example 1 is repeated, but varying the type of biocide and amount of biocide used. The procedure for determining the extent of microbial contamination is as follows:
(§4) 10 mg of the sieved powder and one drop of sterile water are evenly spread on a Nutrient Agar plate with a glass spreader under aseptic conditions and the plate incubated at 30° C. for 48 hours, The number of bacterial colonies evident on each plate are then counted and expressed as the number of colony-forming units per gram (cfu/g).

[2] = tested on: mixed culture of Gram-positive cocci, Gram-negative cocci, Gram-positive rods and Gram-negative rods; test: as above; remark: listed apart in the source
[3] = tested on: mixed culture of Gram-positive cocci, Gram-negative cocci, Gram-positive rods and Gram-negative rods; test: Microbial contamination of dried Pigment Yellow 65 powder (Example 2 procedure) after mixing filter cake with bacterial culture
Method: as §1, §2, §4
as §3, with “(100%)” for “(80%)”, “o-nitro-p-anisidine” for “p-nitro-o-anisidine”, “cake (still” for “cake(still”, “water) and” for “water)and”
The procedure described in Example 2 is repeated, but varying the type of biocide and amount of biocide used.
The procedure described in Example 2 is repeated, but varying the type of biocide and amount of biocide used and omitting the DBS.

[4] = tested on: mixed culture of Gram-positive cocci, Gram-negative cocci, Gram-positive rods and Gram-negative rods; test: Microbial contamination of dried Pigment Yellow 13 powder (Example 5 procedure) after mixing filter cake with bacterial culture; conditions: PY13, no DBS
Method: as §1, §2, §4
A solution of 8.9 parts of acetic acid (100%) and 15 parts hydrochloric acid (36%) in 100 parts water are added to a solution of 63 parts of acetoacet-m-xylidide dissolved in a solution of 25.2 parts of sodium hydroxide (50%) in 676 parts of water at a temperature of 20° C. The resultant slurry is reacted with 36.9 parts of a previously tetrazotised solution of 3,3′-dichlorobenzidine, with simultaneous addition of sodium hydroxide solution (10%) to maintain pH 4.5-5.5. […] The product is then filtered and washed with water under vacuum to remove soluble salts. The filter cake (still under vacuum suction) is mixed with a bacterial culture (10 ml of culture diluted to 100 ml with water) and vacuum suction is maintained until no further liquid emanates from the filter cake. The filter cake, without further washing, is then dried and converted to a powder by grinding. The powder is then passed through a 150 micron sieve.

Benzyldimethyl-C12-14-alkylammonium chloride [KLC]
microbial contamination, colony-forming units per gram ([1]; PY74, 3 parts DBS + 1 part KLC): 0 cfu/g
microbial contamination, colony-forming units per gram ([1]; PY74, 3 parts dibutyl sebacate, 0.1 parts biocide, plate 30° C. 48 hours): >10^4 cfu/g
microbial contamination, colony-forming units per gram ([1]; PY74, 3 parts dibutyl sebacate, 0.5 parts biocide, plate 30° C. 48 hours): 0 cfu/g
microbial contamination, colony-forming units per gram ([1]; PY74, 3 parts dibutyl sebacate, 1.0 parts biocide, plate 30° C. 48 hours): 0 cfu/g
microbial contamination, colony-forming units per gram ([1]; PY74, 3 parts dibutyl sebacate, 3.0 parts biocide, plate 30° C. 48 hours): 0 cfu/g
microbial contamination, colony-forming units per gram ([1]; PY74, 3 parts dibutyl sebacate, 5.0 parts biocide, plate 30° C. 48 hours): 0 cfu/g
microbial contamination, colony-forming units per gram ([2]; PY74, 0 parts DBS + 1 part KLC): 0 cfu/g
microbial contamination, colony-forming units per gram ([2]; PY74, 1 parts DBS + 1 part KLC): 0 cfu/g
microbial contamination, colony-forming units per gram ([2]; PY74, 2 parts DBS + 1 part KLC): 0 cfu/g
microbial contamination, colony-forming units per gram ([3]; PY65, omitting the DBS, 0.5 parts biocide): 1.3 × 10^4 cfu/g
microbial contamination, colony-forming units per gram ([3]; PY65, omitting the DBS, 1.0 parts biocide): 0 cfu/g
microbial contamination, colony-forming units per gram ([3]; PY65, omitting the DBS, 3.0 parts biocide): 0 cfu/g
microbial contamination, colony-forming units per gram ([3]; PY65, omitting the DBS, 5.0 parts biocide): 0 cfu/g
microbial contamination, colony-forming units per gram ([3]; PY65, with 3 parts dibutyl sebacate, 0.5 parts biocide): 2.7 × 10^3 cfu/g
microbial contamination, colony-forming units per gram ([3]; PY65, with 3 parts dibutyl sebacate, 1.0 parts biocide): 0 cfu/g
microbial contamination, colony-forming units per gram ([3]; PY65, with 3 parts dibutyl sebacate, 3.0 parts biocide): 0 cfu/g
microbial contamination, colony-forming units per gram ([3]; PY65, with 3 parts dibutyl sebacate, 5.0 parts biocide): 0 cfu/g
microbial contamination, colony-forming units per gram ([4]; 0.5 parts biocide): >10^4 cfu/g
microbial contamination, colony-forming units per gram ([4]; 1.0 parts biocide): >10^4 cfu/g
microbial contamination, colony-forming units per gram ([4]; 3.0 parts biocide): 0 cfu/g
microbial contamination, colony-forming units per gram ([4]; 5.0 parts biocide): 0 cfu/g
